Data taken from patent US8759535B2, “Substituted fused imidazole derivatives, pharmaceutical compositions, and methods of use thereof” (High Point Pharmaceuticals, LLC, priority 2010, dated 2014).
Structures can show the parent of a compound that is named as a salt.

test system: HMOX1; test: HMOX1 Protein Assay (immunostaining of HO-1 in NHLF cells, GE InCell 1000); type: cell-based; settings: Homo sapiens, fold change above DMSO treated cells, 3 μM compound (asterisk), 16 h
Outline: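 NHLF cells seeded overnight in FGM-2, then exposed to compound or DMSO vehicle for 16 h, fixed, and immunostained for HO-1 with Hoechst nuclear counterstain; imaged on InCell 1000. Values are fold change over DMSO-treated cells, generally at 5 μM (0.8% DMSO), with asterisked entries at 3 μM.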

Compound | fold induction at 3 µM
C[C@@H](O)CN1CC[C@@H](NC(=O)c2ccc3c(c2)nc(Nc2nc4ccc(Cl)cc4s2)n3C)C1 [Example 296, 2-(6-Chloro-benzothiazol-2-ylamino)-1-methyl-1H-benzoimidazole-5-carboxylic acid [(R)-1-((R)-2-hydroxy-propyl)-pyrrolidin-3-yl]-amide] | 34.6
C[C@@H](O)CN1CC[C@@H](NC(=O)c2ccc3c(c2)nc(Nc2nc4ccc(C(F)(F)F)cc4s2)n3C)C1 [Example 297, 1-Methyl-2-(6-trifluoromethyl-benzothiazol-2-ylamino)-1H-benzoimidazole-5-carboxylic acid [(R)-1-((R)-2-hydroxy-propyl)-pyrrolidin-3-yl]-amide] | 24.4

same assay, conditions: Homo sapiens, fold change above DMSO treated cells, 5 μM compound, 16 h

Compound | fold induction at 5 µM
Cn1c(Nc2nc3ccc(OC(F)(F)F)cc3s2)nc2cc(C(=O)N[C@@H]3C[C@H](CO)[C@@H](O)[C@H]3O)ccc21 [Example 282, 1-Methyl-2-(6-trifluoromethoxy-benzothiazol-2-ylamino)-1H-benzoimidazole-5-carboxylic acid ((1R,2S,3R,4R)-2,3-dihydroxy-4-hydroxymethyl-cyclopentyl)-amide] | 51.7
Cn1c(Nc2nc3ccc(OC(F)(F)F)cc3s2)nc2cc(C(=O)N[C@@H]3[C@@H](O)[C@H](O)[C@@H](CO)O[C@@H]3O)ccc21 [Example 283, 1-Methyl-2-(6-trifluoromethoxy-benzothiazol-2-ylamino)-1H-benzoimidazole-5-carboxylic acid ((2S,3R,4R,5S,6R)-2,4,5-trihydroxy-6-hydroxymethyl-tetrahydro-pyran-3-yl)-amide] | 30.2
Cn1c(Nc2nc3ccc(OC(F)(F)F)cc3s2)nc2cc(C(=O)N(CCO)CCO)ccc21 [Example 284, 1-Methyl-2-(6-trifluoromethoxy-benzothiazol-2-ylamino)-1H-benzoimidazole-5-carboxylic acid bis-(2-hydroxy-ethyl)-amide] | 47.4
Cn1c(Nc2nc3ccc(OC(F)(F)F)cc3s2)nc2ccc(C(=O)NCCOCCO)cc21 [Example 286, 3-Methyl-2-(6-trifluoromethoxy-benzothiazol-2-ylamino)-3H-benzoimidazole-5-carboxylic acid [2-(2-hydroxy-ethoxy)-ethyl]-amide] | 61.1
Cn1c(Nc2nc3ccc(Cl)cc3s2)nc2ccc(C(=O)NCCOCCO)cc21 [Example 288, 2-(6-Chloro-benzothiazol-2-ylamino)-3-methyl-3H-benzoimidazole-5-carboxylic acid [2-(2-hydroxy-ethoxy)-ethyl]-amide] | 47
Cn1c(Nc2nc3ccc(OC(F)(F)F)cc3s2)nc2cc(C(=O)NC3CCNC3)ccc21 (centres unmarked) [Example 289, 1-Methyl-2-(6-trifluoromethoxy-benzothiazol-2-ylamino)-1H-benzoimidazole-5-carboxylic acid pyrrolidin-3-ylamide hydrochloride] | 44.6
Cn1c(Nc2nc3ccc(Cl)cc3s2)nc2cc(C(=O)N[C@@H]3CCNC3)ccc21 [Example 290, 2-(6-Chloro-benzothiazol-2-ylamino)-1-methyl-1H-benzoimidazole-5-carboxylic acid (R)-pyrrolidin-3-ylamide hydrochloride] | 22.5
Cn1c(Nc2nc3ccc(Cl)cc3s2)nc2cc(C(=O)N[C@H]3CCNC3)ccc21 [Example 291, 2-(6-Chloro-benzothiazol-2-ylamino)-1-methyl-1H-benzoimidazole-5-carboxylic acid (S)-pyrrolidin-3-ylamide hydrochloride] | 17
Cn1c(Nc2nc3ccc(Cl)cc3s2)nc2cc(C(=O)N[C@@H]3CCN(CCO)C3)ccc21 [Example 292, 2-(6-Chloro-benzothiazol-2-ylamino)-1-methyl-1H-benzoimidazole-5-carboxylic acid [(R)-1-(2-hydroxy-ethyl)-pyrrolidin-3-yl]-amide] | 39
Cn1c(Nc2nc3ccc(Cl)cc3s2)nc2cc(C(=O)N[C@H]3CCN(CCO)C3)ccc21 [Example 293, 2-(6-Chloro-benzothiazol-2-ylamino)-1-methyl-1H-benzoimidazole-5-carboxylic acid [(S)-1-(2-hydroxy-ethyl)-pyrrolidin-3-yl]amide] | 29.4
C[C@@H](O)CN1CCC(NC(=O)c2ccc3c(c2)nc(Nc2nc4ccc(OC(F)(F)F)cc4s2)n3C)C1 (stereo partly drawn) [Example 294, 1-Methyl-2-(6-trifluoromethoxy-benzothiazol-2-ylamino)-1H-benzoimidazole-5-carboxylic acid [1-((R)-2-hydroxy-propyl)-pyrrolidin-3-yl]-amide] | 29.4
Cn1c(Nc2nc3ccc(OC(F)(F)F)cc3s2)nc2cc(C(=O)NC3CCN(CC(C)(C)O)C3)ccc21 (centres unmarked) [Example 298, 1-Methyl-2-(6-trifluoromethoxy-benzothiazol-2-ylamino)-1H-benzoimidazole-5-carboxylic acid [1-(2-hydroxy-2-methyl-propyl)-pyrrolidin-3-yl]-amide] | 21.1
Cn1c(Nc2nc3ccc(Cl)cc3s2)nc2cc(C(=O)NC3CCN(CCC(=O)O)C3)ccc21 (centres unmarked) [Example 299, 3-(3-{[2-(6-Chloro-benzothiazol-2-ylamino)-1-methyl-1H-benzoimidazole-5-carbonyl]-amino}-pyrrolidin-1-yl)-propionic acid] | 16.7
Cn1c(Nc2nc3ccc(Cl)cc3s2)nc2cc(C(=O)NC3CCN(CCNS(C)(=O)=O)C3)ccc21 (centres unmarked) [Example 300, 2-(6-Chloro-benzothiazol-2-ylamino)-1-methyl-1H-benzoimidazole-5-carboxylic acid [1-(2-methanesulfonylamino-ethyl)-pyrrolidin-3-yl]-amide] | 26.2
COCCn1c(Nc2nc3ccc(Cl)cc3s2)nc2cc(C(=O)NC3CCN(CCO)CC3)ccc21 [Example 301, 2-(6-Chloro-benzothiazol-2-ylamino)-1-(2-methoxy-ethyl)-1H-benzoimidazole-5-carboxylic acid [1-(2-hydroxy-ethyl)-piperidin-4-yl]-amide] | 27.8
Cn1c(Nc2nc3ccc(Cl)cc3s2)nc2cc(C(=O)NCC3CCN(CCO)CC3)ccc21 [Example 303, 2-(6-Chloro-benzothiazol-2-ylamino)-1-methyl-1H-benzoimidazole-5-carboxylic acid [1-(2-hydroxy-ethyl)-piperidin-4-ylmethyl]-amide] | 25.6
COCCn1c(Nc2nc3ccc(Cl)cc3s2)nc2cc(C(=O)NCC3CCN(CCO)CC3)ccc21 [Example 304, 2-(6-Chloro-benzothiazol-2-ylamino)-1-(2-methoxy-ethyl)-1H-benzoimidazole-5-carboxylic acid [1-(2-hydroxy-ethyl)-piperidin-4-ylmethyl]-amide] | 24.7
Cn1c(Nc2nc3ccc(OC(F)(F)F)cc3s2)nc2cc(C(=O)N3CCN(CCO)CC3)ccc21 [Example 305, [4-(2-Hydroxy-ethyl)-piperazin-1-yl]-[1-methyl-2-(6-trifluoromethoxy-benzothiazol-2-ylamino)-1H-benzoimidazol-5-yl]-methanone] | 41.7
Cn1c(Nc2nc3ccc(Cl)cc3s2)nc2cc(C(=O)N3CCN(CCO)CC3)ccc21 [Example 306, [2-(6-Chloro-benzothiazol-2-ylamino)-1-methyl-1H-benzoimidazol-5-yl]-[4-(2-hydroxy-ethyl)-piperazin-1-yl]-methanone] | 38.7
Cn1c(Nc2nc3ccc(OC(F)(F)F)cc3s2)nc2cc(C(=O)N3CCC(CCCO)CC3)ccc21 [Example 307, [4-(3-Hydroxy-propyl)-piperidin-1-yl]-[1-methyl-2-(6-trifluoromethoxy-benzothiazol-2-ylamino)-1H benzoimidazol-5-yl]-methanone] | 31.5
CN(C)CC(=O)N1CC[C@@H](NC(=O)c2ccc3c(c2)nc(Nc2nc4ccc(Cl)cc4s2)n3C)C1 [Example 308, 2-(6-Chloro-benzothiazol-2-ylamino)-1-methyl-1H-benzoimidazole-5-carboxylic acid [(R)-1-(2-dimethylamino-acetyl)-pyrrolidin-3-yl]-amide] | 24.3
Cn1c(Nc2nc3ccc(Cl)cc3s2)nc2cc(C(=O)N[C@@H]3CCCNC3)ccc21 [Example 309, 2-(6-Chloro-benzothiazol-2-ylamino)-1-methyl-1H-benzoimidazole-5-carboxylic acid (R)-piperidin-3-ylamide hydrochloride] | 21.5
Cn1c(Nc2nc3ccc(Cl)cc3s2)nc2cc(C(=O)N[C@H]3CCCNC3)ccc21 [Example 310, 2-(6-Chloro-benzothiazol-2-ylamino)-1-methyl-1H-benzoimidazole-5-carboxylic acid (S)-piperidin-3-ylamide hydrochloride] | 24.6
CN(C)CC(=O)N1CCC[C@@H](NC(=O)c2ccc3c(c2)nc(Nc2nc4ccc(Cl)cc4s2)n3C)C1 [Example 311, 2-(6-Chloro-benzothiazol-2-ylamino)-1-methyl-1H-benzoimidazole-5-carboxylic acid [(R)-1-(2-dimethylamino-acetyl)-piperidin-3-yl]-amide] | 77.3
CN(C)CC(=O)N1CCC[C@H](NC(=O)c2ccc3c(c2)nc(Nc2nc4ccc(Cl)cc4s2)n3C)C1 [Example 312, 2-(6-Chloro-benzothiazol-2-ylamino)-1-methyl-1H-benzoimidazole-5-carboxylic acid [(S)-1-(2-dimethylamino-acetyl)-piperidin-3-yl]-amide] | 68.8
CN(C)CC(=O)N1CCC(NC(=O)c2ccc3c(c2)nc(Nc2nc4ccc(Cl)cc4s2)n3C)CC1 [Example 313, 2-(6-Chloro-benzothiazol-2-ylamino)-1-methyl-1H-benzoimidazole-5-carboxylic acid [1-(2-dimethylamino-acetyl)-piperidin-4-yl]-amide] | 22.9
CN(C)CC(=O)N1CCC(CNC(=O)c2ccc3c(c2)nc(Nc2nc4ccc(Cl)cc4s2)n3C)CC1 [Example 314, 2-(6-Chloro-benzothiazol-2-ylamino)-1-methyl-1H-benzoimidazole-5-carboxylic acid [1-(2-dimethylamino-acetyl)-piperidin-4-ylmethyl]-amide] | 79.7
